In experiment [1] the test system is Immunologically Stimulated Human Basophils. The experiment in a line: Inhibition of Histamine Release from Immunologically Stimulated Human Basophils. Particulars: anti-IgE or antigen stimulated, 60 min, 37° C., read-out: ED50 (concentration which causes 50% inhibition of histamine release). It counts as cell-based. Here is the method:
The novel compounds of this invention have been tested by the procedure of Lichtenstein, L. M. and Osler, A. G., J. Exp. Med., 120, 507-530 (1964), which evaluates the ability of compounds to inhibit mediator (histamine) release from immunologically stimulated human basophils. 10X Concentrated Tris Buffer Dissolve 140.3 g of sodium chloride, 7.45 g of potassium chloride and 74.5 g of Trizma-Tris Pre-Set, Reagent Grade, pH 7.6, at 25° C. (Sigma Chemical Co.) in sufficient water to give a final volume of 2 liters. Human Albumin (Sigma Chemical Co.) (30 mg/ml) Calcium and Magnesium Stocks Made to 0.075M and 0.5M respectively, with calcium chloride dihydrate and magnesium chloride hexahydrate. Tris-A Buffer A 10 ml portion of 10X Tris Buffer and 1.0 ml of human albumin are diluted to 100 ml with water. Tris ACM Buffer A 10 ml portion of 10X Tris Buffer, 1.0 ml of human albumin, 0.8 ml of calcium stock and 0.2 ml of magnesium stock are diluted to 100 ml with water. Rabbit Antihuman IgE Behring Diagnostics (Generally used at 10 μg protein/ml final concentration.) House Dust Mite Extract (Dermatophagoides Farinae) Strength 1:100 (w:v) allergenic extract, Hollister-Stier Labs. Generally this is diluted 1:1000 to 1:10,000 (considering the vial as stock). Other Allergens Intradermal solutions or intramuscular preparations for hyposensitization, Hollister-Stier Labs. The final concentration used is on the order of 1 PNU/ml. Separation of Leukocytes from Human Blood and Challenge Eighty milliliters of blood is withdrawn from subjects with known histamine release to anti-IgE, ragweed antigen or other specific allergen, using four 20 ml heparinized tubes. This 80 ml of blood is mixed with 20 ml of saline containing 0.6 g of dextrose and 1.2 g of dextran. The blood is allowed to sediment at room temperature in two 50 ml polycarbonate centrifuge tubes until a sharp interface develops between the red cells and plasma (60-90 minutes). The plasma (top) layer from each tube is withdrawn by pipet and transferred to respective 50 ml polycarbonate tubes. The plasma is centrifuged for 8 minutes at 110×G at 4° C. The supernatant is carefully poured off as completely as possible and the cell button is resuspended in 2-3 ml of Tris-A buffer using a siliconized Pasteur pipet. The resuspension is accomplished by drawing the liquid gently in an out of the pipet, with the tip below the liquid, until an even suspension of cells is obtained. Sufficient Tris-A buffer is then added to bring the volume in the tube to about 45 ml and the tube is centrifuged at 110×G for 8 minutes at 4° C. The supernatant is poured off and the cell button is resuspended and centrifuged as described above. The supernatant is poured off and the cell button suspended in 2-3 ml of Tris-ACM buffer to make the final volume sufficient to allow addition to the reaction tubes. Reaction tubes containing anti-IgE or antigens, either alone or with test compound in a total volume of 0.2 ml are prepared and placed in a 37° C. bath. The cells are warmed to 37° C. and frequently swirled to ensure an even suspension, while 1.0 ml aliquots are added to each reaction tube. The tubes are then incubated for 60 minutes at 37° C., vortexing the tubes gently every 15 minutes to keep the cells evenly suspended. When the reaction is complete, the tubes are centrifuged at 4° C. for 10 minutes at 1500 rpm to sediment the cells. One ml aliquots of supernatant are transferred to 12 mm by 75 mm polyethylene tubes and 0.2 ml of 8% perchloric acid is added to each tube. Blanks and totals are included in each test. The blanks have cells and all reagents except antigen or anti-IgE. The totals contain 0.24 ml of 8% perchloric acid, one ml of cells and 0.2 ml of buffer. All samples are then centrifuged to remove the precipitate protein. Assay of Released Histamine by the Automated Fluorometric Method This automated method has been described by Siraganian, R. P., in Anal. Biochem., 57, 383 (1974) and J. Immunol. […]

A further experiment concerns the target T1, Neutrophil Lipoxygenase (Cavia porcellus, UniProt A0A286X958).
T1 construct: endogenous in cells; host or cells: guinea pig peritoneal neutrophils
T1 sequence (A0A286X958 1-674): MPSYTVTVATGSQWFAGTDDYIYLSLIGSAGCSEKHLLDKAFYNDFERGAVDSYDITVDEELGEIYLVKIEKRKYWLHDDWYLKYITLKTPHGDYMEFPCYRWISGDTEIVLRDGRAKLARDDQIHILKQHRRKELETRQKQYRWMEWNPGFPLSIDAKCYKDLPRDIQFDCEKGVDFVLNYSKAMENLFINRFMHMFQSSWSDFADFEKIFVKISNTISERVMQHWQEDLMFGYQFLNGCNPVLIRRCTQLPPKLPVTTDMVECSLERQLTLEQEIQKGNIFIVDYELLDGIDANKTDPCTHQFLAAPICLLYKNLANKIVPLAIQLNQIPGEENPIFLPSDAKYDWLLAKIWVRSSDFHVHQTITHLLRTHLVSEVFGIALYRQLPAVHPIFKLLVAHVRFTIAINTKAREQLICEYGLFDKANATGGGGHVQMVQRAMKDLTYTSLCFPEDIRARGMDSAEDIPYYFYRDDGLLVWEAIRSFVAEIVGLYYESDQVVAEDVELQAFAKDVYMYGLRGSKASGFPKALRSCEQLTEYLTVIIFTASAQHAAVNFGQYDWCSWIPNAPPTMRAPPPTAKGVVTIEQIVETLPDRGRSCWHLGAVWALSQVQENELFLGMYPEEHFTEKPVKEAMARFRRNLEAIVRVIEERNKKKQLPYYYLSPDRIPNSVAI
The experiment can be described thus: Inhibition of Neutrophil Lipoxygenase from Immunologically Stimulated Guinea Pig Neutrophiles (LTB4 and 5-HETE). Particulars: 10 μg/ml, 100 μM arachidonic acid and 20 μM A23187, the lower the percentage, the more active. In kind it is cell-based. On the procedure:
In this assay 3×10^7 peritoneal neutrophils derived from guinea pigs were incubated at 37° C. in Dulbeccos buffer containing 50 mM tris buffer (pH 7.4). Five minutes before the addition of 100 μM arachidonic acid and 20 μM calcium ionophore (A23187), control vehicle or the test compounds were added to the neutrophils at a concentration of 10 μg/ml. Three minutes after the addition of arachidonic acid and calcium ionophore the total lipid was partitioned into chloroform after adjusting the pH to 3 with citric acid and the addition of equal parts of methanol and chloroform. The 5-HETE and LTB4 were resolved by HPLC using a 5 μM, 4×25 cm octadecyl silica column (IBM Instruments) with 70-80% methanol in water adjusted to pH 3.0 with acetic acid. As the mobile phase was pumped at 1.0 ml/minute, LTB4 and 5-HETE were detected by absorbance at 270 and 236 nm, respectively. LTB4 and 5-HETE were quantitated by comparison with the control and the results were expressed as a percent of control.

Structures are written as SMILES. Where a name gives a salt, the structure may show the parent alone. Read-outs that look alike come from different tables or passages of the source.

With `CCOC(=O)N1CCN(C2=C(Cl)C(=O)c3ccccc3C2=O)CC1` [Example 1, 4-(3-Chloro-1,4-dioxo-2-naphthyl)-1-piperazinecarboxylic acid, ethyl ester], the IC50 in experiment [1] (ethyl ester) is 5.5 µM. Moreover, on Neutrophil Lipoxygenase, the “5-HETE, % of Control” value is listed as 0 % of Control and the “LTB4, % of Control” value was 0 % of Control.

Take `CN(CCN(C)C1=C(Cl)C(=O)c2ccccc2C1=O)Cc1ccccc1` [Example 2, 2-Chloro-3-[methyl[2-[methyl(phenylmethyl)amino]ethyl]amino]-1,4-naphthalenedione, hydrochloride]: the IC50 in experiment [1] (Homo sapiens, 1 h) is 4 µM.

For `O=C1C(Cl)=C(N2CCN(Cc3ccccc3)CC2)C(=O)c2ccccc21` [Example 5, 2-chloro-3-[4-(phenylmethyl)-1-piperazinyl]-1,4-naphthalenedione], the IC50 in experiment [1] (Homo sapiens, 1 h) was found to be 10.4 µM. Also, on Neutrophil Lipoxygenase, the “5-HETE, % of Control” value is on record as 0 % of Control and the “LTB4, % of Control” value is listed as 0 % of Control.

Regarding `O=C1C(Cl)=C(N2CCN(CC(=O)N3CCOCC3)CC2)C(=O)c2ccccc21` [Example 6, 4-[[4-(3-chloro-1,4-dihydro-1,4-dioxo-2-naphthalenyl)-1-piperazinyl]acetyl]morpholine], in experiment [1] (Homo sapiens, 1 h), the IC50 came out at 20.6 µM.

In the case of `O=C1C(Cl)=C(N2CCN(CC(=O)N3CCCC3)CC2)C(=O)c2ccccc21` [Example 7, 1-[[4-(3-chloro-1,4-dihydro-1,4-dioxo-2-naphthalenyl)-1-piperazinyl]acetyl]pyrrolidine], the IC50 in experiment [1] (Homo sapiens, 1 h) was 14.9 µM.

In the case of `O=C1C(Cl)=C(N2CCN(c3ccccn3)CC2)C(=O)c2ccccc21` [Example 8, 2-chloro-3-[4-(2-pyridinyl)-1-piperazinyl]-1,4-naphthalenedione, hydrochloride], the IC50 in experiment [1] (Homo sapiens, 1 h) came out at 4.6 µM. For the same compound, the remaining activity at 10 µg/mL at Neutrophil Lipoxygenase (read-out: 5-HETE, % of Control) amounted to 1.3%; on Neutrophil Lipoxygenase (read-out: LTB4, % of Control), 6.1%.

As to `CN(CCNCc1nc2ccccc2s1)C1=C(Cl)C(=O)c2ccccc2C1=O` [Example 9, 2-[[2-(2-benzothiazolylmethylamino)ethyl]methylamino]-3-chloro-1,4-naphthalenedione], the IC50 in experiment [1] (Homo sapiens, 1 h) came out at 6.4 µM. Besides, the remaining activity at 10 µg/mL on Neutrophil Lipoxygenase (read-out: 5-HETE, % of Control) amounted to 0.2%; at Neutrophil Lipoxygenase (read-out: LTB4, % of Control), 0%.

With `CC1CN(C2=C(Cl)C(=O)c3ccccc3C2=O)CCN1` (centres unmarked) [Example 14, 2-chloro-3-(3-methyl-1-piperazinyl)-1,4-naphthalenedione], the IC50 in experiment [1] (Homo sapiens, 1 h) turned out to be 3 µM.

For `Cl.O=C1C(Cl)=C(N2CCN(Cc3ccccc3)CC2)C(=O)c2ccccc21` [Example 15, 2-chloro-3-[4-(phenylmethyl)-1-piperazinyl]-1,4-naphthalenedione, hydrochloride], in experiment [1] (hydrochloride), the IC50 is 13.4 µM. At Neutrophil Lipoxygenase, the “5-HETE, % of Control” value is on record as 35.6 % of Control and the “LTB4, % of Control” value is 28.3 % of Control.

On to `CCOC(=O)N1CCN(C2=C(Cl)C(=O)c3ccccc3C2=O)CC1.Cl` [Example 16, 4-(3-chloro-1,4-dihydro-1,4-dioxo-2-naphthalenyl)-1-piperazinecarboxylic acid, ethyl ester, hydrochloride], for which the IC50 in experiment [1] (e, hydrochloride) was 1.5 µM. Moreover, on Neutrophil Lipoxygenase, the “5-HETE, % of Control” value is given as 6.9 % of Control and the “LTB4, % of Control” value was 9.3 % of Control.

For `O=C1C(Cl)=C(N2CCN(c3nc4ccccc4s3)CC2)C(=O)c2ccccc21` [Example 17, 2-[4-(2-benzothiazolyl)-1-piperazinyl]-3-chloro-1,4-naphthalenedione, hydrochloride], in experiment [1] (Homo sapiens, 1 h), the IC50 was 5.4 µM. For the same compound, the remaining activity at 10 µg/mL on Neutrophil Lipoxygenase (read-out: 5-HETE, % of Control) was 23.1%; at Neutrophil Lipoxygenase (read-out: LTB4, % of Control) it was 32.6%.

Consider `CC(C)COC(=O)N1CCN(C2=C(Cl)C(=O)c3ccccc3C2=O)CC1` [Example 33, 4-(3-Chloro-1,4-dihydro-1,4-dioxo-2-naphthalenyl)-1-piperazinecarboxylic acid, 2-methylpropyl ester], for which the IC50 in experiment [1] (Homo sapiens, 1 h) worked out at 16.5 µM. Further, the remaining activity at 10 µg/mL amounted to 31.6% at Neutrophil Lipoxygenase (read-out: 5-HETE, % of Control) and 27.4% at Neutrophil Lipoxygenase (read-out: LTB4, % of Control).

Regarding `O=C1C(Cl)=C(N2CCN(C(=O)c3ccccc3Cl)CC2)C(=O)c2ccccc21` [Example 34, 1-(2-chlorobenzoyl)-4-(3-chloro-1,4-dihydro-1,4-dioxo-2-naphthalenyl)piperazine], the IC50 in experiment [1] (Homo sapiens, 1 h) is 1.8 µM.
